From patent publication US11964996B2, “2-alkynylmannose derivative and application thereof” (priority 2020, dated 2024)

The molecules below were run against T1, FimH proteins (Escherichia coli, UniProt Q1R2J4) (assay: hemagglutination inhibition (HAI) assay: UPEC UTI89 with guinea pig red blood cells). Conditions: read-out: HAI EC90 (minimum concentration for inhibiting hemagglutination).
T1 construct: endogenous in cells; host or cells: UPEC strain UTI89 (whole bacteria)
Assay type: cell-based, uropathogenic Escherichia coli (UPEC) UTI89
Experimental: In the present example, the mannose derivatives A1 to A107 that were prepared in Examples 1 to 12 were analyzed in hemagglutination inhibition (HAI) assays to determine inhibitory effects of the compounds on the function/activity of FimH proteins.
1. Preparation of a guinea pig red blood cell solution: an adult guinea pig was anesthetized with ethyl ether, blood was sampled from the heart, placed in an EDTA blood collection tube, and centrifuged at 2,000 rpm for 5 min, serum was removed, the sample was transferred in a centrifuge tube (15 mL), sterilized PBS was added, the sample was centrifuged at 1,500 rpm for 10 min, a supernatant was removed, the sample was transferred in a centrifuge tube (50 mL), PBS was added, the sample was centrifuged at 1,500 rpm for 10 min and repeatedly washed twice, and red blood cells were slightly aspirated into a new centrifuge tube (50 mL) to obtain a 5% guinea pig red blood cell solution.
2. Preparation of a bacteria solution: a UPEC cell line UTI89 was inoculated on a medium plate and cultured in an incubator at 37° C. overnight. Single colonies were picked and inoculated in an LB medium in a sterilized conical flask, and cultured at 37° C. and 170 r/min overnight. When an OD value at 540 nm was about 0.8 on a microplate reader, the bacterial concentration was about 10^8-10^9 cfu/mL, the bacteria solution was centrifuged at 2,000 rpm for 10 min, a supernatant was removed, and 1 mL of bacteria solution was prepared into 0.1 mL of PBS bacteria solution. […] The bacteria and the medium were uniformly mixed by shaking, and reacted in an incubator at 25° C. for about 20-40 min. When the plate was read, the wells in which complete agglutination occurred were used as 4HAU for the hemagglutination titer of the bacteria. For example, if the endpoint titer of hemagglutination is 1:256, the dilution multiple of the 4HAU antigen is 1:64 (256 divided by 4). Bacteria solutions at corresponding concentrations were prepared according to the experimental results.
3. Activity assay: a compound to be tested or a standard product was placed in a 96-well microtest plate, 50 μL of drug at an initial concentration of 200 μM was placed in the first well, and from the second well, 25 μL of PBS was added to each well to dilute the drug in proportion. The drug and the medium in the first well were mixed, 25 μL of mixed drug solution was placed in the second well, the drug solution was diluted in sequence to the last well, and 25 μL of drug solution was removed. 25 μL of bacteria solution was placed in each well of the culture plate containing the diluted drug, and cultured at 37° C. for 40 min. 25 μL of 5% guinea pig red blood cell suspension was placed in each well, and slightly uniformly mixed with the drug, and the plate was placed at 4° C. for about 1 h. When results were determined, the plate was tilted 60°, and whether the red blood cells flowed like teardrops was observed.
Mannosyl proteins are expressed on the surface of red blood cells in a guinea pig, which can bind to FimH proteins of UTI89 to cause hemagglutination. It can be observed with the naked eyes that the red blood cells form film-like agglutination at the bottom of the well, and loose red dots can be seen in the center. The FimH protein inhibitor competitively binds to FimH proteins to inhibit hemagglutination. It can be observed with the naked eyes that all the red blood cells sink and concentrate at the bottom of the well to form dense dots. The minimum concentration for inhibiting hemagglutination is expressed as an EC90 value of a compound. The final concentration of the compound in the first well is 66700 nM, the concentration in the second well is half that in the first well, the concentration in the third well is half that in the second well, and so on. […] A low EC90 value indicates high activity of a compound.
Work on `OC[C@H]1O[C@H](C#Cc2cnn(C3CCC(F)(F)CC3)c2)[C@](O)(C#Cc2ccccc2)[C@@H](O)[C@@H]1O` [Compound A53] yielded an EC90 of 8 nM.
With `O=c1ccc(C#C[C@H]2O[C@H](CO)[C@@H](O)[C@H](O)[C@@]2(O)C#Cc2ccccc2)cn1C1CCCCC1` [Compound A54] the EC90 was 4 nM.
`O=c1ccc(C#C[C@H]2O[C@H](CO)[C@@H](O)[C@H](O)[C@@]2(O)C#Cc2ccccc2)cn1-c1ccccc1` [Compound A55] was tested, and the EC90 was 64 nM.
`CCC(C)O[C@H]1O[C@H](CO)[C@@H](O)[C@H](O)[C@@]1(O)C#Cc1ccc(F)cc1` (some centres unmarked) [Compound A56] gave an EC90 of 520 nM.
With `CCC(C)O[C@H]1O[C@H](CO)[C@@H](O)[C@H](O)[C@@]1(O)C#Cc1cccc(Cl)c1` (some centres unmarked) [Compound A57] the EC90 was 260 nM.
`CCC(C)O[C@H]1O[C@H](CO)[C@@H](O)[C@H](O)[C@@]1(O)C#Cc1cccc(OC)c1` (some centres unmarked) [Compound A58] was tested, and the EC90 was 520 nM.
Work on `OC[C@H]1O[C@H](C#Cc2cnn(C3CCCCC3)c2)[C@](O)(C#CC2CC2)[C@@H](O)[C@@H]1O` [Compound A59] yielded an EC90 of 4 nM.
`CO[C@H]1CC[C@H](n2cc(C#C[C@H]3O[C@H](CO)[C@@H](O)[C@H](O)[C@@]3(O)C#Cc3ccccc3)cn2)CC1` [Compound A60] showed an EC90 of 2 nM.
Work on `OC[C@H]1O[C@H](C#Cc2cnn([C@@H]3C[C@H]4C[C@H]4C3)c2)[C@](O)(C#Cc2ccccc2)[C@@H](O)[C@@H]1O` [Compound A61] yielded an EC90 of 8 nM.
In the case of `OC[C@H]1O[C@H](C#Cc2cnn([C@H]3C[C@H]4C[C@H]4C3)c2)[C@](O)(C#Cc2ccccc2)[C@@H](O)[C@@H]1O` [Compound A62], the EC90 is reported as 0.5 nM.
`CC(n1cc(C#C[C@H]2O[C@H](CO)[C@@H](O)[C@H](O)[C@@]2(O)C#Cc2ccccc2)cn1)C(F)(F)F` (some centres unmarked) [Compound A63] gave an EC90 of 16 nM.
For `OC[C@H]1O[C@H](C#Cc2cnn(-c3ncccc3Cl)c2)[C@](O)(C#Cc2ccccc2)[C@@H](O)[C@@H]1O` [Compound A64], the EC90 was 4 nM.
Work on `N#Cc1ccccc1-n1cc(C#C[C@H]2O[C@H](CO)[C@@H](O)[C@H](O)[C@@]2(O)C#Cc2ccccc2)cn1` [Compound A65] yielded an EC90 of 64 nM.
Work on `OC[C@H]1O[C@H](C#Cc2cnn(-c3cccc(Cl)c3)c2)[C@](O)(C#Cc2ccccc2)[C@@H](O)[C@@H]1O` [Compound A66] yielded an EC90 of 0.13 nM.
`OC[C@H]1O[C@H](C#Cc2cnn(-c3ccc(Cl)cc3)c2)[C@](O)(C#Cc2ccccc2)[C@@H](O)[C@@H]1O` [Compound A67] gave an EC90 of 0.13 nM.
With `OC[C@H]1O[C@H](C#Cc2cnn(-c3ccc(F)cc3)c2)[C@](O)(C#Cc2ccccc2)[C@@H](O)[C@@H]1O` [Compound A68] the EC90 was 8 nM.
With `OC[C@H]1O[C@H](C#Cc2cnn(C3CCCCC3O)c2)[C@](O)(C#Cc2ccccc2)[C@@H](O)[C@@H]1O` (some centres unmarked) [Compound A69] the EC90 was 16 nM.
With `OC[C@H]1O[C@H](C#Cc2cnn(-c3ccccc3Cl)c2)[C@](O)(C#CC2CC2)[C@@H](O)[C@@H]1O` [Compound A70] the EC90 was 8 nM.
For `COc1cnc(-n2cc(C#C[C@H]3O[C@H](CO)[C@@H](O)[C@H](O)[C@@]3(O)C#Cc3cnn(C)c3)cn2)nc1` [Compound A71], the EC90 was 8 nM.
`OC[C@H]1O[C@H](C#Cc2cnn(-c3ccc(Cl)cc3)c2)[C@](O)(C#CC2CC2)[C@@H](O)[C@@H]1O` [Compound A72] was tested, and the EC90 was < 0.1 nM.
`OC[C@H]1O[C@H](C#Cc2cnn(-c3ccc(Cl)cc3)c2)[C@](O)(C#Cc2cccnc2)[C@@H](O)[C@@H]1O` [Compound A73] gave an EC90 of 8 nM.
`Cn1cc(C#C[C@@]2(O)[C@@H](C#Cc3cnn(-c4ccc(Cl)cc4)c3)O[C@H](CO)[C@@H](O)[C@@H]2O)cn1` [Compound A74] gave an EC90 of 0.13 nM.
In the case of `CO[C@H]1CC[C@H](n2cc(C#C[C@H]3O[C@H](CO)[C@@H](O)[C@H](O)[C@@]3(O)C#Cc3cc(F)cc(F)c3)cn2)CC1` [Compound A75], the EC90 is reported as 8 nM.
Molecule `OC[C@H]1O[C@H](C#Cc2cnn([C@H]3CC[C@H](O)CC3)c2)[C@](O)(C#Cc2ccc(F)cc2)[C@@H](O)[C@@H]1O` [Compound A76] has an EC90 of 4 nM.
`OC[C@H]1O[C@H](C#Cc2cnn([C@H]3CC[C@H](O)CC3)c2)[C@](O)(C#Cc2ccccc2)[C@@H](O)[C@@H]1O` [Compound A77] showed an EC90 of 2 nM.
In the case of `CCn1cc(C#C[C@@]2(O)[C@@H](C#Cc3cnn(-c4ccc(Cl)cc4)c3)O[C@H](CO)[C@@H](O)[C@@H]2O)cn1` [Compound A78], the EC90 is reported as < 0.1 nM.
With `Cn1cc(C#C[C@@]2(O)[C@@H](C#Cc3cnn(-c4cnn(C)c4)c3)O[C@H](CO)[C@@H](O)[C@@H]2O)cn1` [Compound A79] the EC90 was 16 nM.
With `CCC#C[C@@]1(O)[C@@H](C#Cc2cnn(-c3ccc(Cl)cc3)c2)O[C@H](CO)[C@@H](O)[C@@H]1O` [Compound A80] the EC90 was 2 nM.
`COc1ccc(-n2cc(C#C[C@H]3O[C@H](CO)[C@@H](O)[C@H](O)[C@@]3(O)C#Cc3ccccc3)cn2)cc1` [Compound A81] was tested, and the EC90 was < 0.1 nM.
With `COc1ccc(-n2cc(C#C[C@H]3O[C@H](CO)[C@@H](O)[C@H](O)[C@@]3(O)C#Cc3cnn(C)c3)cn2)cc1` [Compound A82] the EC90 was < 0.1 nM.
For `Cn1cc(C#C[C@@]2(O)[C@@H](C#Cc3cnn(C4CCC(F)(F)CC4)c3)O[C@H](CO)[C@@H](O)[C@@H]2O)cn1` [Compound A83], the EC90 was 2 nM.
`Cn1cc(C#C[C@@]2(O)[C@@H](C#Cc3cnn(-c4ccccc4)c3)O[C@H](CO)[C@@H](O)[C@@H]2O)cn1` [Compound A84] showed an EC90 of 0.25 nM.
In the case of `Cn1cc(C#C[C@@]2(O)[C@@H](C#Cc3cnn(C4CCCCC4)c3)O[C@H](CO)[C@@H](O)[C@@H]2O)cn1` [Compound A85], the EC90 is reported as 2 nM.
With `CCC#C[C@@]1(O)[C@@H](C#Cc2cnn(-c3ccccc3)c2)O[C@H](CO)[C@@H](O)[C@@H]1O` [Compound A87] the EC90 was 32 nM.
With `OC[C@H]1O[C@H](C#Cc2cnn(-c3ccccc3)c2)[C@](O)(C#CC2CC2)[C@@H](O)[C@@H]1O` [Compound A88] the EC90 was 4 nM.
In the case of `O=S(=O)(O)c1cccc(C#C[C@@]2(O)[C@@H](C#Cc3cnn(-c4ccc(OC[C@H](O)CO)cc4)c3)O[C@H](CO)[C@@H](O)[C@@H]2O)c1` [Compound A89], the EC90 is reported as 16 nM.
`[2H]C([2H])([2H])Oc1ccc(-n2cc(C#C[C@H]3O[C@H](CO)[C@@H](O)[C@H](O)[C@@]3(O)C#CC3CC3)cn2)cc1` [Compound A90] was tested, and the EC90 was < 0.1 nM.
`OC[C@@H](O)COc1ccc(-n2cc(C#C[C@H]3O[C@H](CO)[C@@H](O)[C@H](O)[C@@]3(O)C#Cc3cnn(C[C@H](O)CO)c3)cn2)cc1` [Compound A91] was tested, and the EC90 was 8 nM.
`OC[C@H]1O[C@H](C#Cc2cnn(-c3cccc(Cl)c3)c2)[C@](O)(C#CC2CC2)[C@@H](O)[C@@H]1O` [Compound A92] gave an EC90 of 2 nM.
For `OC[C@H]1O[C@H](C#Cc2cnn(-c3ccc(F)cc3)c2)[C@](O)(C#CC2CC2)[C@@H](O)[C@@H]1O` [Compound A93], the EC90 was 2 nM.
For `Cc1ccc(-n2cc(C#C[C@H]3O[C@H](CO)[C@@H](O)[C@H](O)[C@@]3(O)C#CC3CC3)cn2)cc1` [Compound A94], the EC90 was < 0.1 nM.
With `OC[C@H]1O[C@H](C#Cc2cnn(-c3ccc(C(F)(F)F)cc3)c2)[C@](O)(C#CC2CC2)[C@@H](O)[C@@H]1O` [Compound A95] the EC90 was 4 nM.
`N#Cc1ccc(-n2cc(C#C[C@H]3O[C@H](CO)[C@@H](O)[C@H](O)[C@@]3(O)C#CC3CC3)cn2)cc1` [Compound A96] showed an EC90 of 4 nM.
`COc1ccc(-n2cc(C#C[C@H]3O[C@H](CO)[C@@H](O)[C@H](O)[C@@]3(O)C#CC3CC3)cn2)cc1` [Compound A97] was tested, and the EC90 was < 0.1 nM.
